Experimental data as given in US9156837B2, “Heterocyclic compound” (Takeda Pharmaceutical Company Limited, priority 2011, dated 2015).

Legend:
RORγt [1] = target: T1, RORγt (Homo sapiens, UniProt P51449); assay: Jurkat reporter test (human IL-17 ROR response element luciferase); format: cell-based; conditions: test compound 3 μM; Jurkat cells transfected with IL-17 ROR response element luciferase reporter and RORγt vector; cultured overnight; read-out: luminescence level inhibitory rate
T1 sequence (P51449 1-497 isoform P51449-2): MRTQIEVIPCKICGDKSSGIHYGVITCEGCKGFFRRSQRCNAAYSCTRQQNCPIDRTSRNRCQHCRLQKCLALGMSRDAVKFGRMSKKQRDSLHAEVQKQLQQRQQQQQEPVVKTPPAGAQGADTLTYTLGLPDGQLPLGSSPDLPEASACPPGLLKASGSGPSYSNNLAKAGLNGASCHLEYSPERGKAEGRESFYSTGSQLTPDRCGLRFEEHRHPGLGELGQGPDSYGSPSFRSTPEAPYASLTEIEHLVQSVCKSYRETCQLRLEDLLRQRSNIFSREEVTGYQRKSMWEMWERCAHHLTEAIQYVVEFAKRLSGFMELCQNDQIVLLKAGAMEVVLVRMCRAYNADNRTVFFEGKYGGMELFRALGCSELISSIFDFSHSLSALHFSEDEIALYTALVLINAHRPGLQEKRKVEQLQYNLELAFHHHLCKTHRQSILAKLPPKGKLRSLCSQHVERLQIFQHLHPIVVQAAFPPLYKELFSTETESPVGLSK
Procedure: The Jurkat cells used for the reporter test were cultured in a culture medium (RPMI (Invitrogen), 10% FCS (AusGeneX), 100 U/mL penicillin, 100 μg/mL streptomycin). On the day of the test, 4×10^7 cells were recovered by a centrifugal operation (1000 rpm, 5 min.) and suspended in PBS (phosphate buffered saline) (Invitrogen). Thereafter, the cells were recovered again by a centrifugal operation, and suspended in 2 mL of R buffer (NEON transfection kit, Invitrogen). Then, a reporter vector 53 μg wherein a human IL-17 ROR response element was inserted into the upstream of luciferase of pGL 4.28 (Promega), and a vector (27 μg) wherein RORγt sequence was inserted into the downstream of CMV promoter were added to the cell suspension. Gene transfer was performed by Electroporation apparatus (NEON, Invitrogen) under the conditions of pulse voltage 1350 V, interval 10 milliseconds, number of times 3. The cells after gene transfer were suspended in 40 mL of a reaction medium (RPMI, 10% Lipid reduced FCS (HyClone), 10 mM HEPES (pH 7.5), 100 U/mL penicillin, 100 μg/mL streptomycin, 5 μM lovastatin), and plated in a 96 well plate by 90 μL. A test compound diluted with the reaction medium was added by 10 μL, and the cells were cultured overnight in an incubator. Bright-Glo (Promega) was added by 100 μL, and the mixture was stirred at room temperature for 10 min, and the luminescence level was measured by Envision (PerkinElmer).
The results (luminescence level inhibitory rate at test compound 3 μM) measured by the above-mentioned method are shown in Table 4.

[2] = system: CD4 positive naive T cells (differentiation into Th17 cells); assay: Mouse Th17 cell differentiation induction test; format: cell-based; conditions: 96 h; test compound 10 μM; BALB/c mouse CD4 positive naive T cells; 4 days; ELISA; read-out: inhibitory rate (IL-17A in culture supernatant, Th17 differentiation)
Procedure: CD4 positive naive T cells were collected from the spleen cells of BALB/c mice (female, 8-11w) using CD4+CD62L+ T Cell Isolation kit II (Miltenyi Biotec). The CD4 positive naive T cells were plated in a 96 well plate (3×10^5 cells/well), stimulated (37° C. for culture) with anti-mouse CD3ε antibody (10 μg/mL, solid phase) and anti-CD28 antibody (5 μg/mL) for 4 days in the presence of anti-IFN-γ antibody, anti-IL-4 antibody, anti-IL-2 antibody, IL-6, TGF-β and IL-23 to allow for differentiation into Th17 cells. The compound was dissolved in DMSO and then added. The cells were cultured under these conditions for 4 days, the concentration of IL-17A in the culture supernatant obtained by centrifugation was measured by ELISA, and differentiation of the Th17 cells was evaluated.

[3] = system: CD4 positive naive T cells (differentiation into Th17 cells); assay: Human Th17 cell differentiation induction test; format: cell-based; conditions: 144 h, test compound 10 μM, 6 days, ELISA, read-out: inhibitory rate (IL-17A in culture supernatant, Th17 differentiation)
Procedure: Using peripheral blood mononuclear cells (PBMC) collected from human peripheral blood by a density gradient centrifugation method, CD4 positive naive T cells were collected. The CD4 positive naive T cells were plated in a 96 well plate (2×10^4 cells/well), and stimulated (37° C. for culture) with anti-CD3/28Ab Dynabeads for 6 days in the presence of IL-1β, IL-6, IL-23, TGFβ, anti-IFNγ Ab, anti-IL-4 Ab to allow for differentiation into Th17 cells. The compound was dissolved in DMSO and then added. After culture for 6 days, the concentration of IL-17A in the culture supernatant obtained by centrifugation was measured by ELISA, and differentiation of the Th17 cells was evaluated.

RORγt [4] = target: T1, RORγt; assay: RORγt binding test (TR-FRET, fluorescent-labeled cholesterol); conditions: test compound 1 μM, histidine-tagged RORγt, read-out: binding inhibitory rate of fluorescent-labeled cholesterol to RORγt
Procedure: The binding activity of the test compound to RORγt was measured by a time resolved fluorescence resonance energy transfer method (TR-FRET) utilizing histidine-tagged RORγt, fluorescent-labeled cholesterol (BODIPY-cholesterol, AVIVA), and terbium-labeled anti-histidine tag antibody (Invitrogen). First, a test compound diluted with an assay buffer (20 mM Tris-HCl (pH 7.5), 100 mM NaCl, 1 mM DTT, 0.1% BSA) was added to a 384 well plate by 3 μL. Then, RORγt diluted with an assay buffer to 240 nM was added by 3 μL, after which fluorescent-labeled cholesterol diluted with the assay buffer to 12 μM was added by 3 μL, and the mixture was stood at room temperature for 20 min. Thereafter, a terbium-labeled anti-histidine tag antibody diluted with the assay buffer to 8 nM was added by 3 μL. The mixture was stood at room temperature for 20 min, and fluorescence intensity (excitation wavelength 320 nm, fluorescence wavelength 520 nm, delay time 100 microseconds) was measured by Envision (PerkinElmer).
The results (binding inhibitory rate of fluorescent-labeled cholesterol to RORγt at test compound 1 μM) measured by the above-mentioned method are shown in Table 2.

[5] = system: Peripheral blood mononuclear cells (PBMC); assay: Human PBMC IL17 production test; format: cell-based; conditions: 72 h; test compound 10 μM; human PBMC stimulated by anti-CD3/CD28 Dynabeads; 3 days; ELISA; read-out: inhibitory rate (IL-17A in culture supernatant, IL-17 production)
Procedure: Peripheral blood mononuclear cells (PBMC) collected from human peripheral blood by a density gradient centrifugation method were stimulated by Dynabeads (registered trade mark; anti-CD3/CD28 antibody) and cultured at 37° C. for 3 days. The compound was dissolved in DMSO and then added. After culture for 3 days under such conditions, the concentration of IL-17A in the culture supernatant obtained by centrifugation was measured by ELISA, and the activity of the compound on IL-17 production was evaluated.

RORγt [6] = target: T1, RORγt; assay: Cofactor recruitment test (Alpha Screen, biotinylated SRC-1 peptide); format: biochemical; conditions: test compound 1 μM, RORγt and biotinylated SRC-1 peptide, read-out: signal value inhibitory rate
Procedure: Cofactor recruitment test was performed by Alpha Screen (Histidine Detection Kit, PerkinElmer) method. First, a test compound was diluted with an assay buffer (50 mM Tris-HCl (pH 7.5), 50 mM KCl, 1 mM DTT, 0.1% BSA) and added to a 384 well plate by 5 μL. Then, RORγt diluted with an assay buffer to 125 nM was added by 10 μL each, after which solutions of 25 nM biotinylated SRC-1 peptide (biotin-[…]), 12.5 μg/mL acceptor beads and 12.5 μg/mL donor beads prepared with the assay buffer were added by 10 μL each. The mixture was stood in a dark place for 1 hr, and the signal value was measured by Envision (PerkinElmer).

Row | inhibition at 3 µM (RORγt [1]) | inhibition at 1 µM (RORγt [4]) | inhibition at 1 µM (RORγt [6]) | SMILES | inhibition at 10 µM [2] | inhibition at 10 µM [3] | inhibition at 10 µM [5]
1 | 101% | 98.7% | 101% | COc1ccc(-c2c(-c3nc(CC(=O)NCC4CCOCC4)cs3)cnn2C(C)(C)C)cc1 [Example 39, 2-{2-[1-tert-butyl-5-(4-methoxyphenyl)-1H-pyrazol-4-yl]-1,3-thiazol-4-yl}-N-(tetrahydro-2H-pyran-4-ylmethyl)acetamide] | 95% | 100% | 91.3%
2 | 87.1% | 96.1% | 102% | CN(Cc1ccncc1)C(=O)Cc1csc(-c2cnn(C(C)(C)C)c2-c2ccc(F)cc2)n1 [Example 18, 2-{2-[1-tert-butyl-5-(4-fluorophenyl)-1H-pyrazol-4-yl]-1,3-thiazol-4-yl}-N-methyl-N-(pyridin-4-ylmethyl)acetamide] | 96.3% | – | –
3 | 81% | 92% | 109% | CC(C)(C)n1ncc(-c2nc(CC(=O)NCC3CCOCC3)cs2)c1-c1ccc(F)cc1 [Example 14, 2-{2-[1-tert-butyl-5-(4-fluorophenyl)-1H-pyrazol-4-yl]-1,3-thiazol-4-yl}-N-(tetrahydro-2H-pyran-4-ylmethyl)acetamide] | 77% | – | –
4 | 94.2% | 98.3% | 101% | CC(C)(C)n1ncc(-c2nc(CC(=O)NCC3CCOCC3)cs2)c1-c1ccc(C#N)cc1 [Example 43, 2-{2-[1-tert-butyl-5-(4-cyanophenyl)-1H-pyrazol-4-yl]-1,3-thiazol-4-yl}-N-(tetrahydro-2H-pyran-4-ylmethyl)acetamide] | 78.6% | – | –

More lines, now with the values behind:

Row | SMILES | inhibition at 3 µM (RORγt [1]) | inhibition at 1 µM (RORγt [4]) | inhibition at 1 µM (RORγt [6]) | inhibition at 10 µM [2] | inhibition at 10 µM [3] | inhibition at 10 µM [5]
5 | CC(C)(C)n1ncc(-c2nc(CC(=O)NCC3CCOCC3)cs2)c1-c1cc2ccccc2s1 [Example 150, 2-{2-[5-(1-benzothiophen-2-yl)-1-tert-butyl-1H-pyrazol-4-yl]-1,3-thiazol-4-yl}-N-(tetrahydro-2H-pyran-4-ylmethyl)acetamide] | 98.4% | 98.7% | 99.3% | 97.7% | – | 92%
6 | CC(C)(C)n1ncc(-c2nc(CC(=O)NCc3ccc(-n4ccnc4)cc3)cs2)c1-c1ccc(F)cc1 [Example 170, 2-{2-[1-tert-butyl-5-(4-fluorophenyl)-1H-pyrazol-4-yl]-1,3-thiazol-4-yl}-N-[4-(1H-imidazol-1-yl)benzyl]acetamide] | 94.4% | 86.5% | 100% | – | – | –
7 | COc1ccc(-c2c(-c3nc(CC(=O)NCC4CCOCC4)cs3)cnn2C(C)(C)C)cc1F [Example 152, 2-{2-[1-tert-butyl-5-(3-fluoro-4-methoxyphenyl)-1H-pyrazol-4-yl]-1,3-thiazol-4-yl}-N-(tetrahydro-2H-pyran-4-ylmethyl)acetamide] | 96% | 95.9% | 95.4% | 91.2% | – | 92%
8 | CC(C)(C)n1ncc(-c2nc(CC(=O)NCc3cccnc3)cs2)c1-c1ccc(F)cc1 [Example 79, 2-{2-[1-tert-butyl-5-(4-fluorophenyl)-1H-pyrazol-4-yl]-1,3-thiazol-4-yl}-N-(pyridin-3-ylmethyl)acetamide] | 85.7% | 95.4% | 99.8% | 69% | – | –
9 | CCCN(Cc1ccccc1)C(=O)Cc1csc(-c2cnn(C(C)(C)C)c2-c2ccc(F)cc2)n1 [Example 97, N-benzyl-2-{2-[1-tert-butyl-5-(4-fluorophenyl)-1H-pyrazol-4-yl]-1,3-thiazol-4-yl}-N-propylacetamide] | 84.1% | 87.3% | 98.8% | 95% | – | –
10 | O=C(Cc1csc(-c2cnn(C3CCCCC3)c2-c2ccc(F)cc2)n1)NCC1CCOCC1 [Example 51, 2-{2-[1-cyclohexyl-5-(4-fluorophenyl)-1H-pyrazol-4-yl]-1,3-thiazol-4-yl}-N-(tetrahydro-2H-pyran-4-ylmethyl)acetamide] | 94.9% | 95.3% | 78.6% | 86% | – | –
11 | CC(C)(C)n1ncc(-c2nc(CC(=O)NCC3CCOCC3)cs2)c1-c1ccc(Cl)cc1 [Example 128, 2-{2-[1-tert-butyl-5-(4-chlorophenyl)-1H-pyrazol-4-yl]-1,3-thiazol-4-yl}-N-(tetrahydro-2H-pyran-4-ylmethyl)acetamide] | 97.1% | 97.8% | 101% | 97.7% | – | –
12 | CC(C)(C)n1ncc(-c2nc(CC(=O)NCC3CCOCC3)cs2)c1-c1ccccc1 [Example 41] | 82.1% | 94.6% | 101% | 92.6% | – | –
